Assay [1] relates to vascular endothelial cells. As to conditions: cited from earlier work.
Another assay deals with Cdc42 protein. Description: Nuclear transfer of GFP/Cdc42 fusion protein in transformed HUVEC observed by fluorescence microscopy. The format is cell-based. As to conditions: HUVEC expressing GFP/Cdc42 fusion protein; 1 μM final concentration; 15 hours culture; nuclei confirmed by Hoechst staining. As for the experimental part:
The present inventors measured the behavior of Cdc42 protein in HUVEC with an HMG-CoA reductase inhibitor, particularly pitavastatin. For this measurement, a gene encoding a Cdc42/fluorescence protein GFP fusion protein was introduced into HUVEC to prepare a transformed cell expressing a GFP/Cdc42 fusion protein. This transformed cell was cultured, and the state of Cdc42 distributed in the cell in the presence or absence of pitavastatin was examined by observing the fluorescence of GFP. A gene encoding the whole area of a Cdc42 translation region was introduced into a predetermined position of a commercial plasmid pEGFP-C1 for preparation of a fusion protein consisting of GFP and a desired protein, to construct a plasmid comprising the GFP-Cdc42 gene. After […] were put to a 6-well plate and then cultured overnight in EGM-2 medium. Using Fugene 6, the plasmid construct DNA prepared above was added in an amount of 0.8 μg/well to the cells. The cells were further cultured for 21 hours in EGM-2 medium, and then the fluorescence of GFP was observed under a fluorescence microscope. […] And then the cells were subjected to stationary culture for 15 hours, fixed onto a prepared slide and observed under a fluorescence microscope. […]

The values that follow come from patent US8252524B2, “Method of screening pharmaceutical compositions that promote nuclear transfer of Cdc42 protein” (Kowa Company, Ltd., priority 2004, dated 2012).

`O=C(O)C[C@H](O)C[C@H](O)/C=C/c1c(C2CC2)nc2ccccc2c1-c1ccc(F)cc1` [pitavastatin, (3R,5S,6E)-7-[2-cylopropyl-4-(4-fluorophenyl)-3-quinolyl]-3,5-dihydroxy-6-heptenoic acid]: in assay [1], the “Expression of NO synthase and thrombomodulin” value is on record as “promotes expression of NO synthase”; the “Expression of PTX3” value is listed as “suppresses expression of PTX3”; the “Expression of inflammatory cytokine IL-8 or MCP-1, endothelin and PAI-1” value is “suppresses expression of inflammatory cytokine IL-8 or MCP-1, expression of endothelin and expression of PAI-1”. For the same compound, in the assay on Cdc42 protein, the “Distribution of GFP-Cdc42 in the cell (transfer into the nucleus)” value is reported as “GFP-Cdc42 is transferred to a nucleus”.
